According to PubChem BioAssay (NCI):
Several values for one entry are separate records, joined by “and”; a condition that tells them apart may be missing. Equal entries are not always repeated.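 In this assay, cells in 96-well plates receive the compound at five concentrations for 48 hours. Endpoints are linearly interpolated between the surrounding concentrations. Here, GI50 denotes the concentration required for 50% inhibition of growth. TGI: total growth inhibition.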

Legend:
Experiment in all cases: NCI-60 cell line screen, 48 h
[1] = test system: BT-549 breast
[2] = test system: CAKI-1 renal
[3] = test system: HCC-2998 colon
[4] = test system: KM12 colon
[5] = test system: MOLT-4 leukemia
[6] = test system: NCI-H23 lung
[7] = test system: SN12C renal
[8] = test system: SNB-75 CNS
[9] = test system: SW-620 colon
[10] = test system: UACC-62 melanoma

Structure (SMILES)	TGI [1]	TGI [2]	TGI [3] [µM]	TGI [4]	TGI [5]	TGI [6]	TGI [7]	TGI [8] [µM]	TGI [9] [µM]	TGI [10] [µM]	GI50 [1] [µM]	GI50 [2] [µM]	GI50 [3] [µM]	GI50 [4] [µM]	GI50 [5] [µM]	GI50 [6] [µM]	GI50 [7] [µM]	GI50 [8] [µM]	GI50 [9] [µM]	GI50 [10] [µM]
O=C(O)CSC1=NNC2(C(=O)N1)c1ccccc1-c1ccccc12	> 10 µM	> 10 µM	> 10	> 10 µM	> 10 µM	> 10 µM	> 10 µM	> 10	> 10	> 10	–	–	–	–	–	–	–	–	–	–
Cc1nc(NS(=O)(=O)c2ccc(NCN3C(=O)c4ccccc4C3=O)cc2)oc1C	> 100 µM	> 100 µM	> 100	> 100 µM	> 100 µM	> 100 µM	> 100 µM	> 100	> 100	> 100	> 100	> 100	> 100	> 100	> 100	> 100	> 100	> 100	> 100	> 100
COc1c(OC)c(OC)c2c(=O)cc(-c3ccc(OC(C)C)cc3)oc2c1OC	> 49.9 µM	35.1 µM	> 53.2	> 100 µM	23.8 µM	> 56.5 µM	> 53.4 µM	> 49.9	> 58.8	32	–	–	–	–	–	–	–	–	–	–
COc1cc(F)c(F)cc1C(=O)c1cnc(NC2CCN(S(C)(=O)=O)CC2)nc1N	18.6 µM	> 25 µM	> 25	> 22.4 µM	20.4 µM	> 18 µM	> 25 µM	10.9	24.8	7.63	4.29	3.79	4.32	3.12	3.4	2.62	4.49	3.83	1.27	3.13
O=C1NC(=O)C(c2cccc(Cl)c2)=C1Nc1ccc(Cl)c(C(=O)O)c1	> 25 µM	> 25 µM	> 25	> 25 µM	> 25 µM	> 25 µM	> 25 µM	> 25	> 25	> 25	> 25	> 25	> 25	> 25	> 25	> 25	> 25	> 25	> 25	> 25
COc1cc(/C=C/C(=O)CC(=O)/C=C/c2cc(OC)c(O)c(OC)c2)cc(OC)c1O	25 µM and 34.4 µM	25 µM and > 100 µM	11.6	15.4 µM and 31.1 µM	25 µM and 84.4 µM	25 µM and 35.7 µM	23.7 µM and > 100 µM	61.4	> 100	–	13.4	21.1	–	13.5	5.1	12.7	57.3	–	–	5.51
CCCCCCCCCCCNC=O	57.5 µM	> 100 µM	86.1	> 100 µM	60.6 µM	> 100 µM	> 100 µM	> 100	> 100	> 100	–	–	–	–	–	–	–	–	–	–
O=C1OCC2=C1C(c1cccc(C(F)(F)F)c1)c1cc3c(cc1N2CCO)OCCO3 (configuration not stated)	> 33.3 µM	> 33.3 µM	> 33.3	> 33.3 µM	> 33.3 µM	> 33.3 µM	> 33.3 µM	–	> 33.3	> 33.3	1.81	1.15	1.1	1.08	1.93	1.78	2.21	–	1.24	0.901
COc1cc(C)cc(C(=O)/C=C/c2ccccc2)c1O	37.8 µM	39.1 µM	38	41.2 µM	69.8 µM	32.4 µM	34 µM	72.1	52.3	33.6	–	–	–	–	–	–	–	–	–	–
CC(C)=Cc1cc(CCC/C(C)=C/Cc2c(O)cc(C)c(C(=O)O)c2O)co1	> 100 µM	> 100 µM	> 100	> 100 µM	–	> 100 µM	> 100 µM	> 100	> 100	> 100	–	–	–	–	–	–	–	–	–	–
CC(C)[P+](c1ccccc1)(c1ccccc1)c1ccccc1	> 100 µM	> 100 µM	> 100	> 100 µM	> 100 µM	–	> 100 µM	66	> 100	> 100	5.55	50.7	3.36	2.57	6.9	–	11.5	4.81	6.83	4.2
COC1=C(OC)C(=O)C(C/C=C(\C)CC/C=C(\C)CC/C=C(\C)CC/C=C(\C)CC/C=C(\C)CC/C=C(\C)CC/C=C(\C)CC/C=C(\C)CC/C=C(\C)CCC=C(C)C)=C(C)C1=O	> 100 µM	> 100 µM	> 100	> 100 µM	> 100 µM	> 100 µM	> 100 µM	> 100	> 100	> 100	> 100	> 100	> 100	> 100	> 100	> 100	> 100	> 100	> 100	> 100
CN1CCN(CCCOc2ccc3nc(Nc4ccc(F)c(F)c4)ccc3c2)CC1	9.86 µM	3.95 µM	3.31	4.16 µM	7.76 µM	13.2 µM	11.8 µM	4.05	3.71	–	2.34	1.67	1.71	1.89	2.37	3.15	2.97	1.35	1.82	–
COc1ccc2nc(C)cc(Sc3nc4ccccc4s3)c2c1	4.45 µM	0.626 µM	2.54	5.07 µM	7.92 µM	7.56 µM	7.06 µM	5.12	2.98	7.51	1.28	–	0.0938	1.9	1.25	1.78	1.7	0.885	1.51	0.717
CC12OC(C(=O)C13CC3)C1C(=O)c3c(O)ccc(O)c3C(=O)C12 (configuration not stated)	51.8 µM	17.9 µM	27.4	90.1 µM	10.2 µM	31.1 µM	–	40.8	–	–	22.1	4.68	11.9	23.5	2.35	14.4	–	20.6	–	–
